Legend:
[1] = target: T1, SF-PhoQc (Shigella flexneri, UniProt Q83RR1); assay: Pyrophosphate Reagent coupled enzymatic activity assay of SF-PhoQc; type: biochemical, S. flexneri 2a 301
T1 construct: The amplified DNA segment encodes PhoQ HK amino acids 251–486; made in house; host or cells: E. coli JM109
Description: The enzymatic activity of SF-PhoQc was determined using the Pyrophosphate Reagent, in which ATP initiates the reaction and ADP generated by ATP is accompanied by the reduction of NADH to NAD^+. The rate of NADH reduction to NAD^+ is detected by a change in absorbance readings at 340 nm. The activity of SF-PhoQc is measured by detecting a decrease in NADH at A340. Recombinant SF-PhoQc (25 µmol/L) was added to initiate the reaction, and the A340 value was recorded by SoftMax vision 4.8 each minute for 30 minutes. The A340 value reduced from 1.47 to 0.65 in the presence of SF-PhoQc (Figure 2).
Figure 2 The activity of recombinant SF-PhoQc. The activity of SF-PhoQc from the Pyrophosphate Reagent was shown. All assays were conducted in a 96-well microplate spectrophotometer. The assay mixture (total volume was 200 µl) contained 25 mmol/L KCl, 2.5 mmol/L MgCl2, 2 mmol/L ATP, 1 mmol/L phosphoendpyruvate, 0.35 mmol/L NADH, 1.5 U/ml PK, 1.25 U/ml LDH and 50 mmol/L Tris-Cl (pH 8.0). Protein SF-PhoQc was added to a final concentration of 25 µmol/L to start the reaction. After SF-PhoQc was added, the A340 value was recorded by SoftMax vision 4.8 every minute for 30 minutes.
The enzymatic activity of SF-PhoQc was measured using both a Pyrophosphate Reagent (Sigma-Aldrich, MO, USA) and a Luminescent Kinase Assay (Promega, WI, USA). The Pyrophosphate Reagent was performed to confirm the inhibitory activities of the effective potential PhoQ inhibitors in the bioinformatics approach. All reactions were carried out in solid black, flat-bottomed 96-well plates. The Pyrophosphate Reagent was performed at 28°C by monitoring the decrease of NADH by a decrease in absorbance readings at 340 nm (ε340 = 6180 M^−1·cm^−1) in the presence of ATP. The final reaction mixture for the Pyrophosphate Reagent contained 25 µmol/L purified SF-PhoQc, 25 mmol/L KCl, 2.5 mmol/L MgCl2, 2 mmol/L ATP, 1 mmol/L phosphoendpyruvate, 0.35 mmol/L NADH, 1.5 U/ml PK, 1.25 U/ml LDH and 50 mmol/L Tris-Cl (pH 8.0). The enzyme activity was determined in the presence of various concentrations of potential PhoQ inhibitors […] to investigate dose-dependent inhibition effects. The A340 value was recorded by SoftMax vision 4.8 every minute, for 30 minutes. The rate of SF-PhoQc enzymatic activity inhibition by a compound was calculated by the following formula: [drawing 1]
Rp (Ratio of Phosphorylation) was defined as the ratio of the decrease activity of SF-PhoQc treated with compound vs the activity of SF-PhoQc treated without compounds. Rp was stand for the percentage of decrease activity of SF-PhoQc.
IC50(the concentration of inhibition of 50%)values of potential PhoQ inhibitors were obtained by fitting the data to a sigmoid dose–response equation using Origin 7.0 software (OriginLab, Northampton, USA).

[2] = tested on: S. flexneri Sf9380; assay: Mouse Sereny test (keratoconjunctivitis); type: in vivo, BALB/c mice; conditions: for degree of keratoconjunctival inflammation: Sf9380 pre-treated at the concentration (I 1 12.5, I 2 25, I 3 and I 4 100 µmol/L); as to degree of keratoconjunctival inflammation: key: −: no disease; ±: little keratoconjunctivitis; +: mild keratoconjunctivitis; ++: keratoconjunctivitis with some purulence; +++: fully developed keratoconjunctivitis with great purulence
Text: A Mouse Sereny test was used to investigate the inhibitory effect of the four potential PhoQ inhibitors on the virulence of S. flexneri Sf9380. The mice were infected with 1×10^8 CFUs per eye.
A Mouse Sereny test was used to evaluate the virulence of S. flexneri Sf9380 [48]. A single red colony of Sf9380 on Congo Red agar (Tryptic soy broth provided by Oxfoid Co. with 1.5% agar and 0.01% Congo red), was inoculated into LB and grown with or without potential PhoQ inhibitors (final concentration 100,50,25,12.5 or 6.25 µmol/L) at 37°C for 8 hours with constant shaking. The female BALB/c mice (about 18 g) were infected with 1×10^8 CFUs per eye. The eye of the mouse was inoculated with the bacterium with or without potential PhoQ inhibitor treatment (n = 6 mice in each group). […] In the experiment, mouse eyes inoculated with untreated Sf9380 (treated without DMSO) served as the positive control for keratoconjunctivitis, and mouse eyes inoculated with E. coli ATCC 25922 (treated without DMSO) served as the negative control. Because DMSO is the solvent of the potential PhoQ inhibitor, Sf9380 was treated with the same amount of DMSO (0.1%) as the other groups. The invasiveness of the bacteria was scored: no disease or mild irritation as “−”, + as mild conjunctivitis or late development and/or rapid clearing of symptoms, ++ as keratoconjunctivitis without purulence, and +++ as fully developed keratoconjunctivitis with purulence.

[3] = Sf9380 pre-treated with 100 µmol/L, 1×10^8 CFUs per eye

T1 sequence (Q83RR1 251-486): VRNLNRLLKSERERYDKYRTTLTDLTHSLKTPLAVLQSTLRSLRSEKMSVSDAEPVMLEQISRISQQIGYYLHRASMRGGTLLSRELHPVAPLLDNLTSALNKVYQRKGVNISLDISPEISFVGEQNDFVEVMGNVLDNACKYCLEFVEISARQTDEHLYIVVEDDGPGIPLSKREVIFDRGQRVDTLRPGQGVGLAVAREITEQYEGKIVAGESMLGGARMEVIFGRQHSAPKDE

O=C(O)c1cc(-c2ccc(-c3ccccc3Cl)o2)nc2ccc3ccccc3c12 [Compound 4]
no inflammation: keratoconjunctival inflammation (words, abstract) ([2]; mice inoculated with pre-treated S. flexneri 9380)
≤ 72 h: time by which keratoconjunctivitis was resolved [2, 3]
27.8 ± 5.59 µM: IC50 [1]
slight conjunctival inflammation: eye finding at 24 hours post-infection [2, 3]
−: degree of keratoconjunctival inflammation ([2]; 24 h, mouse 6) | degree of keratoconjunctival inflammation ([2]; 48 h, mouse 2) | degree of keratoconjunctival inflammation ([2]; 48 h, mouse 3) | degree of keratoconjunctival inflammation ([2]; 48 h, mouse 4) | degree of keratoconjunctival inflammation ([2]; 48 h, mouse 6) | degree of keratoconjunctival inflammation ([2]; 72 h, mouse 2) | degree of keratoconjunctival inflammation ([2]; 72 h, mouse 3) | degree of keratoconjunctival inflammation ([2]; 72 h, mouse 4) | degree of keratoconjunctival inflammation ([2]; 72 h, mouse 5) | degree of keratoconjunctival inflammation ([2]; 72 h, mouse 6) | degree of keratoconjunctival inflammation ([2]; 96 h, mouse 1) | degree of keratoconjunctival inflammation ([2]; 96 h, mouse 2) | degree of keratoconjunctival inflammation ([2]; 96 h, mouse 3) | degree of keratoconjunctival inflammation ([2]; 96 h, mouse 4) | degree of keratoconjunctival inflammation ([2]; 96 h, mouse 5) | degree of keratoconjunctival inflammation ([2]; 96 h, mouse 6)
65.8%: decrease of SF-PhoQc catalyzed consumption of ATP ([1]; Pyrophosphate Reagent)
+: degree of keratoconjunctival inflammation ([2]; 24 h, mouse 1) | degree of keratoconjunctival inflammation ([2]; 24 h, mouse 2) | degree of keratoconjunctival inflammation ([2]; 24 h, mouse 3) | degree of keratoconjunctival inflammation ([2]; 24 h, mouse 4) | degree of keratoconjunctival inflammation ([2]; 24 h, mouse 5) | degree of keratoconjunctival inflammation ([2]; 48 h, mouse 1) | degree of keratoconjunctival inflammation ([2]; 48 h, mouse 5) | degree of keratoconjunctival inflammation ([2]; 72 h, mouse 1)
